Source: ChEMBL document CHEMBL3608207, “Synthesis, characterization, evaluation and molecular dynamics studies of 5, 6-diphenyl-1,2,4-triazin-3(2H)-one derivatives bearing 5-substituted 1,3,4-oxadiazole as potential anti-inflammatory and analgesic agents” (Eur J Med Chem, 2015)

Experiments:
[1] = test system: Rattus norvegicus; test: Anti-inflammatory activity in rat Freund's adjuvant induced arthritis model of chronic inflammation assessed as inhibition of right hind paw swelling at equimolar oral dose relative to 10 mg/kg, po indomethacin dosed after 14 days from day of adjuvant injection until day 21 and measured on day 6; assay type: functional
[2] = test system: Rattus norvegicus; test: Anti-inflammatory activity in rat Freund's adjuvant induced arthritis model of chronic inflammation assessed as inhibition of right hind paw swelling at equimolar oral dose relative to 10 mg/kg, po indomethacin dosed after 14 days from day of adjuvant injection until day 21 and measured on day 21; assay type: functional
[3] = test system: Rattus norvegicus; test: Gastro-intestinal toxicity in rat Freund's adjuvant induced arthritis model of chronic inflammation assessed as ulcer index at equimolar oral dose relative to 10 mg/kg, po indomethacin dosed after 14 days from day of adjuvant injection until day 21 and measured on day 21; assay type: organism-based; conditions: in vivo, 336 h
[4] = test system: Rattus norvegicus; test: (§1) Gastro-intestinal toxicity in rat Freund's adjuvant induced arthritis model of chronic inflammation assessed as histological changes at equimolar oral dose relative to 10 mg/kg, po indomethacin dosed after 14 days from day of adjuvant injection until day 21 and measured on day 21 by hematoxylin and eosin staining based microscopy; assay type: organism-based; conditions: in vivo, 336 h
[5] = test system: Rattus norvegicus; test: (§2) Hepato-toxicity in rat Freund's adjuvant induced arthritis model of chronic inflammation assessed as assessed as SGOT level at equimolar oral dose relative to 10 mg/kg, po indomethacin dosed after 14 days from day of adjuvant injection until day 21 and measured on day 21 (reference value: 92.48 +/- 7.8 U/mL); assay type: organism-based; conditions: in vivo, 336 h
[6] = test system: Rattus norvegicus; test: as §2, with “Renal toxicity” for “Hepato-toxicity”, “total albumin” for “SGOT”, “1.77” for “92.48”, “0.12 g/dL)” for “7.8 U/mL)”; assay type: organism-based; conditions: in vivo, 336 h
[7] = test system: Rattus norvegicus; test: as §1, with “Hepato-toxicity” for “Gastro-intestinal toxicity”; assay type: organism-based; conditions: in vivo, 336 h
[8] = test system: Rattus norvegicus; test: as §1, with “Renal” for “Gastro-intestinal”; assay type: organism-based; conditions: in vivo, 336 h
[9] = test system: Rattus norvegicus; test: Toxicity in healthy albino rat assessed as induction of changes in autonomic or behavioural responses up to 500 mg/kg, po; assay type: organism-based; conditions: in vivo
[10] = test system: Rattus norvegicus; test: Toxicity in healthy albino rat assessed as induction of salivation up to 500 mg/kg, po; assay type: organism-based; conditions: in vivo
[11] = test system: Rattus norvegicus; test: Toxicity in healthy albino rat assessed as induction of diarrhoea up to 500 mg/kg, po; assay type: organism-based; conditions: in vivo
[12] = test system: Rattus norvegicus; test: Toxicity in healthy albino rat assessed as induction of sleep up to 500 mg/kg, po; assay type: organism-based; conditions: in vivo
[13] = test system: Rattus norvegicus; test: Toxicity in healthy albino rat assessed as induction of mortality at 500 mg/kg, po measured after 14 days; assay type: organism-based; conditions: in vivo, 336 h

Compound: O=c1nc(-c2ccccc2)c(-c2ccccc2)nn1Cc1nnc(-c2ccc(O)cc2O)o1
- inhibition (INH) [1]: 37.61%
- inhibition (INH) [2]: 54.25%
- UI [3]: 10
- Activity [4]: Non-toxic
- Activity [5]: 99.35 U/ml
- Activity [6]: 1.82 g/dL
- Activity [7]: Non-toxic
- Activity [8]: Non-toxic
- Activity [9]: Non-toxic
- Activity [10]: Non-toxic
- Activity [11]: Non-toxic
- Activity [12]: Non-toxic
- Activity [13]: Non-toxic

Compound: O=c1nc(-c2ccccc2)c(-c2ccccc2)nn1Cc1nnc(-c2ccc(Cl)cc2)o1
- inhibition (INH) [1]: 35.28%
- inhibition (INH) [2]: 51.98%
- UI [3]: 18
- Activity [5]: 107.18 U/ml
- Activity [6]: 1.8 g/dL
- Activity [9]: Non-toxic
- Activity [10]: Non-toxic
- Activity [11]: Non-toxic
- Activity [12]: Non-toxic
- Activity [13]: Non-toxic

Compound: O=c1nc(-c2ccccc2)c(-c2ccccc2)nn1Cc1nnc(-c2ccc([N+](=O)[O-])cc2)o1
- inhibition (INH) [1]: 36.13%
- inhibition (INH) [2]: 49.7%
- UI [3]: 16
- Activity [5]: 102.38 U/ml
- Activity [6]: 1.83 g/dL
- Activity [9]: Non-toxic
- Activity [10]: Non-toxic
- Activity [11]: Non-toxic
- Activity [12]: Non-toxic
- Activity [13]: Non-toxic

Compound: COc1ccc(-c2nnc(Cn3nc(-c4ccccc4)c(-c4ccccc4)nc3=O)o2)cc1
- inhibition (INH) [1]: 35.14%
- inhibition (INH) [2]: 49.34%
- UI [3]: 11
- Activity [5]: 103.17 U/ml
- Activity [6]: 1.87 g/dL
- Activity [9]: Non-toxic
- Activity [10]: Non-toxic
- Activity [11]: Non-toxic
- Activity [12]: Non-toxic
- Activity [13]: Non-toxic

Compound: Nc1ccc(-c2nnc(Cn3nc(-c4ccccc4)c(-c4ccccc4)nc3=O)o2)cc1
- inhibition (INH) [1]: 36.5%
- inhibition (INH) [2]: 52.21%
- UI [3]: 12
- Activity [4]: Non-toxic
- Activity [5]: 98.21 U/ml
- Activity [6]: 1.87 g/dL
- Activity [7]: Non-toxic
- Activity [8]: Non-toxic
- Activity [9]: Non-toxic
- Activity [10]: Non-toxic
- Activity [11]: Non-toxic
- Activity [12]: Non-toxic
- Activity [13]: Non-toxic
